From article PMC8105722 (The Journal of Experimental Medicine, 2021)

Biological target: Rv0812 (Mycobacterium tuberculosis, UniProt Q79FW0)
Sequence (Q79FW0 whole entry): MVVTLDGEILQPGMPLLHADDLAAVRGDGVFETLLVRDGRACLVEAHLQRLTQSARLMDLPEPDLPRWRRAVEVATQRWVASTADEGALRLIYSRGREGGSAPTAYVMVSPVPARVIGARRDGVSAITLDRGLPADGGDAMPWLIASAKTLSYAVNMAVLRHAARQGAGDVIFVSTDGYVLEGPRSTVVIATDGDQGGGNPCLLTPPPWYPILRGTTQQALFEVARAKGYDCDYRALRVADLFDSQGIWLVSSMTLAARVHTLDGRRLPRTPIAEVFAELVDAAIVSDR

With Cc1ncc(COP(=O)(O)O)c(C=O)c1O [PLP] the “X-ray crystal structure (cocrystal with 0.2 mM PLP)” value was “PLP was fit into the corresponding electron density”.
